Source: US10501421B1, “Substituted benzimidazoles as modulators of Ras signaling” (VANDERBILT UNIVERSITY, priority 2017, dated 2019)
Counter-ions that a name gives are not always drawn.

How the values were obtained:
[1] = biological target: Ras GEF SOS (Son of Sevenless) (Homo sapiens, UniProt Q07889); assay: SOS-mediated nucleotide exchange on Ras (BODIPY-GDP fluorescence); assay type: biochemical; conditions: SOS-mediated exchange of BODIPY-GDP for GTP on Ras
Outline: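 Ras loaded with BODIPY-GDP was mixed in buffer with test compound, then GTP and SOS. Fluorescence change from labeled GDP/GTP exchange was followed over time, and rates came from single-exponential fits. EC50 came from a four-parameter fit of mean rate against compound concentration.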

Son of Sevenless (SOS) = biological target: T1, Son of Sevenless (SOS) (Homo sapiens, UniProt Q07889); assay: Binding to SOS, fluorescence polarization anisotropy (FPA) probe displacement; conditions: displacement of FITC-conjugated probe (Example 285), affinity calculated from IC50
T1 sequence (Q07889 564-1049 limits assumed): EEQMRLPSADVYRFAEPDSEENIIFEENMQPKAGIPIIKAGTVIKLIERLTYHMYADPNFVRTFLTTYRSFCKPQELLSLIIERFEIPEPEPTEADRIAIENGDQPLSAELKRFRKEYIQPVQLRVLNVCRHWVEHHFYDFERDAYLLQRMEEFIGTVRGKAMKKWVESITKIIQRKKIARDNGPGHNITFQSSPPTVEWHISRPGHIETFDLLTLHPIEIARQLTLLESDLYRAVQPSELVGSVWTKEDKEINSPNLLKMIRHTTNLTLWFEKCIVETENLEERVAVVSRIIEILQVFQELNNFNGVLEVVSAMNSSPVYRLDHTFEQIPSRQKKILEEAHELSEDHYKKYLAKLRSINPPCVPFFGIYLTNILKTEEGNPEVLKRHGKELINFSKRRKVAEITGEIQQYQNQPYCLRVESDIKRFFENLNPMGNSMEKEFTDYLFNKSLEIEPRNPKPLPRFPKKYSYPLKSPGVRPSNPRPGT
Outline: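 A FITC-conjugated probe compound was incubated with SOS in buffer, and its displacement was tracked as a change in fluorescence anisotropy across a test-compound dose range. IC50 came from a four-parameter variable-slope fit, and binding affinity was calculated from it.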

Chain of Ras GEF SOS (Son of Sevenless) (P01112 1-166 partner limits assumed, one chain of several): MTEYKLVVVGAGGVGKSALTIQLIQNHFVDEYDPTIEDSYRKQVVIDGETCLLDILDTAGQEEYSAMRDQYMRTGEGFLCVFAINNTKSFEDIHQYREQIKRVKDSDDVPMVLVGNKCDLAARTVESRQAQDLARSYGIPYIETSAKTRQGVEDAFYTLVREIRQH

Row | EC50 [1] [µM] | Ki (Son of Sevenless (SOS)) [µM] | Compound
1 | < 1 | 0.5 to 1 | CN(C)CCn1nccc1-c1cc(Cl)cc2c1nc(N1CCNCC1)n2Cc1ccc(F)c(Cl)c1 [Example 175, 2-(5-(6-chloro-1-(3-chloro-4-fluorobenzyl)-2-(piperazin-1-yl)-1H-benzo[d]imidazol-4-yl)-1H-pyrazol-1-yl)-N,N-dimethylethan-1-amine trifluoroacetate]
2 | 1 to 5 | < 0.5 | CC(C)n1nccc1-c1cc(Cl)cc2c1nc(N1CCNCC1)n2Cc1ccc(F)c(Cl)c1 [Example 176, 6-chloro-1-(3-chloro-4-fluorobenzyl)-4-(1-isopropyl-1H-pyrazol-5-yl)-2-(piperazin-1-yl)-1H-benzo[d]imidazole trifluoroacetate]
3 | 30 to 100 | 1 to 5 | Cc1cc(Cn2c(N3CCNCC3)nc3c(-c4ccnn4-c4cccc5ccccc45)cc(Cl)cc32)cc(C)c1F [Example 177, 6-chloro-1-(4-fluoro-3,5-dimethylbenzyl)-4-(1-(naphthalen-1-yl)-1H-pyrazol-5-yl)-2-(piperazin-1-yl)-1H-benzo[d]imidazole trifluoroacetate]
4 | 5 to 30 | > 5 | Cc1cc(Cn2c(N3CCNCC3)nc3c(-c4ccnn4-c4ccc(C(C)(C)C)cc4)cc(Cl)cc32)cc(C)c1F [Example 178, 4-(1-(4-(tert-butyl)phenyl)-1H-pyrazol-5-yl)-6-chloro-1-(4-fluoro-3,5-dimethylbenzyl)-2-(piperazin-1-yl)-1H-benzo[d]imidazole trifluoroacetate]
5 | < 1 | 1 to 5 | COC(=O)c1cnn(CCN(C)C)c1-c1cc(C)cc2c1nc(N1CCNCC1)n2Cc1ccc(F)c(Cl)c1 [Example 180, methyl 5-(1-(3-chloro-4-fluorobenzyl)-6-methyl-2-(piperazin-1-yl)-1H-benzo[d]imidazol-4-yl)-1-(2-(dimethylamino)ethyl)-1H-pyrazole-4-carboxylate]
6 | 1 to 5 | > 5 | Cc1cc(Cn2c(N3CCNCC3)nc3c(-c4ccccc4C#Cc4ccccc4)cc(Cl)cc32)cc(C)c1F [Example 182, 6-chloro-1-(4-fluoro-3,5-dimethylbenzyl)-4-(2-(phenylethynyl)phenyl)-2-(piperazin-1-yl)-1H-benzo[d]imidazole trifluoroacetate]
7 | 1 to 5 | 0.5 to 1 | Cc1cc(Cn2c(N3CCNCC3)nc3c(-c4ccccc4C#Cc4ccccc4Cl)cc(Cl)cc32)cc(C)c1F [Example 183, 6-chloro-4-(2-((2-chlorophenyl)ethynyl)phenyl)-1-(4-fluoro-3,5-dimethylbenzyl)-2-(piperazin-1-yl)-1H-benzo[d]imidazole trifluoroacetate]
8 | 1 to 5 | 0.5 to 1 | Cc1cc(Cn2c(N3CCNCC3)nc3c(-c4c(C)cccc4C#Cc4ccccc4Cl)cc(Cl)cc32)cc(C)c1F [Example 184, 6-chloro-4-(2-((2-chlorophenyl)ethynyl)-6-methylphenyl)-1-(4-fluoro-3,5-dimethylbenzyl)-2-(piperazin-1-yl)-1H-benzo[d]imidazole trifluoroacetate]
9 | 5 to 30 | > 5 | Cc1ccccc1C#Cc1ccccc1-c1cc(Cl)cc2c1nc(N1CCNCC1)n2Cc1cc(C)c(F)c(C)c1 [Example 185, 6-chloro-1-(4-fluoro-3,5-dimethylbenzyl)-2-(piperazin-1-yl)-4-(2-(o-tolylethynyl)phenyl)-1H-benzo[d]imidazole trifluoroacetate]
10 | 1 to 5 | 0.5 to 1 | Cc1cc(N2CCC(N)CC2)c2nc(N3CCNCC3)n(Cc3cc(C)c(F)c(C)c3)c2c1 [Example 188, 1-(1-(4-fluoro-3,5-dimethylbenzyl)-6-methyl-2-(piperazin-1-yl)-1H-benzo[d]imidazol-4-yl)piperidin-4-amine trifluoroacetate]
11 | 1 to 5 | 0.5 to 1 | Cc1cc(N2CCC(CN)C2)c2nc(N3CCNCC3)n(Cc3cc(C)c(F)c(C)c3)c2c1 (centres unmarked) [Example 189, (1-(1-(4-fluoro-3,5-dimethylbenzyl)-6-methyl-2-(piperazin-1-yl)-1H-benzo[d]imidazol-4-yl)pyrrolidin-3-yl)methanamine trifluoroacetate]
12 | < 1 | 0.5 to 1 | Cc1cc(N2CCNCC2)c2nc(N3CCNCC3)n(Cc3cc(C)c(F)c(C)c3)c2c1 [Example 190, 1-(4-fluoro-3,5-dimethylbenzyl)-6-methyl-2,4-di(piperazin-1-yl)-1H-benzo[d]imidazole trifluoroacetate]
13 | 1 to 5 | 0.5 to 1 | Cc1cc(N(C)CCN(C)C)c2nc(N3CCNCC3)n(Cc3cc(C)c(F)c(C)c3)c2c1 [Example 191, N^1-(1-(4-fluoro-3,5-dimethylbenzyl)-6-methyl-2-(piperazin-1-yl)-1H-benzo[d]imidazol-4-yl)-N^1,N^2,N^2-trimethylethane-1,2-diamine trifluoroacetate]
14 | 1 to 5 | 0.5 to 1 | CNCCN(C)c1cc(C)cc2c1nc(N1CCNCC1)n2Cc1cc(C)c(F)c(C)c1 [Example 192, N^1-(1-(4-fluoro-3,5-dimethylbenzyl)-6-methyl-2-(piperazin-1-yl)-1H-benzo[d]imidazol-4-yl)-N^1,N^2-dimethylethane-1,2-diamine trifluoroacetate]
15 | 1 to 5 | 0.5 to 1 | Cc1cc(NCCN2CCOCC2)c2nc(N3CCNCC3)n(Cc3cc(C)c(F)c(C)c3)c2c1 [Example 193, 1-(4-fluoro-3,5-dimethylbenzyl)-6-methyl-N-(2-morpholinoethyl)-2-(piperazin-1-yl)-1H-benzo[d]imidazol-4-amine trifluoroacetate]
16 | 1 to 5 | 0.5 to 1 | COCCN1CCN(c2cc(C)cc3c2nc(N2CCNCC2)n3Cc2cc(C)c(F)c(C)c2)CC1 [Example 195, 1-(4-fluoro-3,5-dimethylbenzyl)-4-(4-(2-methoxyethyl)piperazin-1-yl)-6-methyl-2-(piperazin-1-yl)-1H-benzo[d]imidazole trifluoroacetate]
17 | 1 to 5 | 0.5 to 1 | Cc1cc(NCCCCN(C)C)c2nc(N3CCNCC3)n(Cc3cc(C)c(F)c(C)c3)c2c1 [Example 196, N^1-(1-(4-fluoro-3,5-dimethylbenzyl)-6-methyl-2-(piperazin-1-yl)-1H-benzo[d]imidazol-4-yl)-N^4,N^4-dimethylbutane-1,4-diamine trifluoroacetate]
18 | 1 to 5 | 0.5 to 1 | Cc1cc(NCCCN(C)C)c2nc(N3CCNCC3)n(Cc3cc(C)c(F)c(C)c3)c2c1 [Example 197, N^1-(1-(4-fluoro-3,5-dimethylbenzyl)-6-methyl-2-(piperazin-1-yl)-1H-benzo[d]imidazol-4-yl)-N^3,N^3-dimethylpropane-1,3-diamine trifluoroacetate]
19 | 1 to 5 | 0.5 to 1 | Cc1cc(NC[C@H]2CCNC2)c2nc(N3CCNCC3)n(Cc3cc(C)c(F)c(C)c3)c2c1 [Example 198, (S)-1-(4-fluoro-3,5-dimethylbenzyl)-6-methyl-2-(piperazin-1-yl)-N-(pyrrolidin-3-ylmethyl)-1H-benzo[d]imidazol-4-amine trifluoroacetate]
20 | < 1 | 0.5 to 1 | Cc1cc(OCCN2CCN(C)CC2)c2nc(N3CCNCC3)n(Cc3cc(C)c(F)c(C)c3)c2c1 [Example 201, 1-(4-fluoro-3,5-dimethylbenzyl)-6-methyl-4-(2-(4-methylpiperazin-1-yl)ethoxy)-2-(piperazin-1-yl)-1H-benzo[d]imidazole]
21 | < 1 | 0.5 to 1 | Cc1cc(OCCN(C)C)c2nc(N3CCNCC3)n(Cc3cc(C)c(F)c(C)c3)c2c1 [Example 203, 2-((1-(4-fluoro-3,5-dimethylbenzyl)-6-methyl-2-(piperazin-1-yl)-1H-benzo[d]imidazol-4-yl)oxy)-N,N-dimethylethan-1-amine]
22 | < 1 | 1 to 5 | Cc1cc(OC2CCOC2)c2nc(N3CCNCC3)n(Cc3cc(C)c(F)c(C)c3)c2c1 (centres unmarked) [Example 204, 1-(4-fluoro-3,5-dimethylbenzyl)-6-methyl-2-(piperazin-1-yl)-4-((tetrahydrofuran-3-yl)oxy)-1H-benzo[d]imidazole]
23 | < 1 | 1 to 5 | Cc1cc(Cn2c(N3CCNCC3)nc3c(OC4CCN(C)CC4)cccc32)ccc1F [Example 205, 1-(4-fluoro-3-methylbenzyl)-4-((1-methylpiperidin-4-yl)oxy)-2-(piperazin-1-yl)-1H-benzo[d]imidazole]
24 | < 1 | > 5 | Cc1cc(Cn2c(N3CCNCC3)nc3c(OC4CCNC4)cccc32)ccc1F (centres unmarked) [Example 206, 1-(4-fluoro-3-methylbenzyl)-2-(piperazin-1-yl)-4-(pyrrolidin-3-yloxy)-1H-benzo[d]imidazole]
25 | < 1 | 1 to 5 | Cc1cc(Cn2c(NCCN)nc3c(OCCN4CCCC4)cccc32)ccc1F [Example 207, N^1-(1-(4-fluoro-3-methylbenzyl)-4-(2-(pyrrolidin-1-yl)ethoxy)-1H-benzo[d]imidazol-2-yl)ethane-1,2-diamine]
